# Reference: patent US20120245161A1 (SANOFI, priority 2009, published 2012)
# Values joined by “and” are separate entries in the source; they are usually repeats but may differ in a detail not shown here. Equal values may be shown once. Where a name gives a salt, the structure may show the parent alone.
# Target: T1, recombinant human beta tryptase (Homo sapiens, UniProt P20231)
# T1 construct: made in house; host or cells: yeast cells
# Assay: beta-Tryptase inhibition, chromogenic enzyme assay (substrate S2366, read at 405 nm)
# Assay type: biochemical
# Conditions: Ki calculated from IC50: Ki=IC50/(1+[Substrate]/Km); 0.5 mM substrate, room temperature; read-out: Tryptase Ki
# Excerpt: Inhibition of this catalytic activity may be measured by the in vitro enzyme assay and the cellular assay.
# Tryptase inhibition activity is confirmed using either isolated human lung tryptase or recombinant human beta tryptase expressed in yeast cells. Essentially equivalent results are obtained using isolated native enzyme or the expressed enzyme. The assay procedure employs a 96 well microplate (Costar 3590) using L-pyroglutamyl-L-prolyl-L-arginine-para-nitroanilide (S2366: Quadratech) as substrate (essentially as described by McEuen et. al. Biochem Pharm, 1996, 52, pages 331-340). Assays are performed at room temperature using 0.5 mM substrate (2×Km) and the microplate is read on a microplate reader (Beckman Biomek Plate reader) at 405 nm wavelength.
# Materials and Methods for Tryptase primary screen (Chromogenic assay)
# S2366 (Stock solutions of 2.5 mM).
# Purified recombinant beta Tryptase Stocks of 310 μg/mL. Protocol (Single point determination) • Add 60 μL of diluted substrate (final concentration of 500 μM in assay buffer) to each well • Add compound in duplicates, final concentration of 20 volume 20 • Add enzyme at a final concentration of 50 ng/mL in a volume of 20 • Total volume for each well is 100 • Agitate briefly to mix and incubate at room temp in the dark for 30 minutes • Read absorbencies at […] Each plate has the following controls: • Totals: 60 μL of substrate, 20 μL of buffer (with 0.2% final concentration of DMSO), • 20 μL of enzyme Non-specific: 60 μL of substrate, 40 μL of buffer (with 0.2% DMSO) Totals: 60 μL of substrate, 20 μL of buffer (No DMSO), 20 μL of enzyme Non-specific: 60 μL of substrate, 40 μL of buffer (No DMSO) Protocol (IC50 and Ki determination)
# The protocol is essentially the same as above except that the compound is added in duplicates at the following final concentrations: 0.01, 0.03, 0.1, 0.3, 1, 3, 10 μM (All dilutions carried out manually). For every assay, whether single point or IC50 determination, a standard compound is used to derive IC50 for comparison. From the IC50 value, the Ki can be calculated using the following formula: Ki=IC50/(1+[Substrate]/Km).
# T1 sequence (P20231 31-275): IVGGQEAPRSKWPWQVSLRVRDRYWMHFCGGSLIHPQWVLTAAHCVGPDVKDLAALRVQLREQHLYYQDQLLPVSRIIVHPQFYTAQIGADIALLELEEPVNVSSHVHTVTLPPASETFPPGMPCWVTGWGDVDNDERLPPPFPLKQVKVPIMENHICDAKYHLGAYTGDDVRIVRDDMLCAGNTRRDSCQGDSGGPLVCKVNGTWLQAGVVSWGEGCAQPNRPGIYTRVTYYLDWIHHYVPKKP
row,Compound,Ki [nM]
1,"CCN(CC)CCn1cc(C(=O)N2CCC(c3cc(CN)ccc3F)CC2)c2ccccc21 [Example 37, [4-(5-Aminomethyl-2-fluoro-phenyl)-piperidin-1-yl]-[1-(2-diethylamino-ethyl)-1H-indol-3-yl]-methanone dihydrochloride]",87
2,"NCc1ccc(F)c(C2CCN(C(=O)c3cn(CCN4CCCC4)c4ccccc34)CC2)c1 [Example 38, [4-(5-Aminomethyl-2-fluoro-phenyl)-piperidin-1-yl]-[1-(2-pyrrolidin-1-yl-ethyl)-1H-indol-3-yl]-methanone dihydrochloride]",66
3,"NCc1ccc(F)c(C2CCN(C(=O)c3cn(CCc4ccccn4)c4ccccc34)CC2)c1 [Example 40, [4-(5-Aminomethyl-2-fluoro-phenyl)-piperidin-1-yl]-[1-(2-pyridin-2-yl-ethyl)-1H-indol-3-yl]-methanone dihydrochloride]",25
4,"NCc1ccc(F)c(C2CCN(C(=O)c3cn(CCN4CCCCC4)c4ccccc34)CC2)c1 [Example 41, [4-(5-Aminomethyl-2-fluoro-phenyl)-piperidin-1-yl]-[1-(2-piperidin-1-yl-ethyl)-1H-indol-3-yl]-methanone dihydrochloride]",62
5,"COCCn1cc(C(=O)N2CCC(c3cc(CN)ccc3F)CC2)c2c(Cl)cccc21 [Example 42, [4-(5-Aminomethyl-2-fluoro-phenyl)-piperidin-1-yl]-[4-chloro-1-(2-methoxy-ethyl)-1H-indol-3-yl]-methanone]",123
6,"COCCn1cc(C(=O)N2CCC(c3cc(CN)ccc3F)CC2)c2c(-c3ccncc3)cccc21 [Example 56, [4-(5-Aminomethyl-2-fluoro-phenyl)-piperidin-1-yl]-[1-(2-methoxy-ethyl)-4-pyridin-4-yl-1H-indol-3-yl]-methanone]",9
7,"COCCn1cc(C(=O)N2CCC(c3cc(CN)ccc3F)CC2)c2c(-c3cncnc3)cccc21 [Example 61, [4-(5-Aminomethyl-2-fluoro-phenyl)-piperidin-1-yl]-[1-(2-methoxy-ethyl)-4-pyrimidin-5-yl-1H-indol-3-yl]-methanone dihydrochloride]",17
8,"Cc1cccc2c(C(=O)N3CCC(c4cc(CN)ccc4F)CC3)cn(CCn3ccnc3)c12 [Example 62, [4-(5-Aminomethyl-2-fluoro-phenyl)-piperidin-1-yl]-[1-(2-imidazol-1-yl-ethyl)-7-methyl-1H-indol-3-yl]-methanone dihydrochloride]",22

# Same assay, conditions: Tryptase Ki (nM), Ki calculated from IC50: Ki=IC50/(1+[Substrate]/Km); 0.5 mM substrate, room temperature
row,Compound,Ki
1,"COCCn1cc(C(=O)N2CCC(c3cc(CN)ccc3F)CC2)c2cccc(F)c21 [Example 39, [4-(5-Aminomethyl-2-fluoro-phenyl)-piperidin-1-yl]-[7-fluoro-1-(2-methoxy-ethyl)-1H-indol-3-yl]-methanone hydrochloride]",10 nM
2,"CCCCn1cc(C(=O)N2CCC(c3cc(CN)ccc3F)CC2)c2cccc(OC(F)(F)F)c21 [Example 43, [4-(5-Aminomethyl-2-fluoro-phenyl)-piperidin-1-yl]-(1-butyl-7-trifluoromethoxy-1H-indol-3-yl)-methanone hydrochloride]",850 nM
3,"COCCn1cc(C(=O)N2CCC(c3cc(CN)ccc3F)CC2)c2c(C)cccc21 [Example 44, [4-(5-Aminomethyl-2-fluoro-phenyl)-piperidin-1-yl]-[1-(2-methoxy-ethyl)-4-methyl-1H-indol-3-yl]-methanone hydrochloride]",51 nM
4,"NCc1ccc(F)c(C2CCN(C(=O)c3cn(CC(F)(F)c4ccccc4)c4ccccc34)CC2)c1 [Example 45, [4-(5-Aminomethyl-2-fluoro-phenyl)-piperidin-1-yl]-[1-(2,2-difluoro-2-phenyl-ethyl)-1H-indol-3-yl]-methanone hydrochloride]",753 nM
5,"CCCCn1cc(C(=O)N2CCC(c3cc(CN)ccc3F)CC2)c2c(OC)cccc21 [Example 46, [4-(5-Aminomethyl-2-fluoro-phenyl)-piperidin-1-yl]-(1-butyl-4-methoxy-1H-indol-3-yl)-methanone hydrochloride]",94 nM
6,"COCCn1cc(C(=O)N2CCC(c3cc(CN)ccc3F)CC2)c2c(OC)cccc21 [Example 47, [4-(5-Aminomethyl-2-fluoro-phenyl)-piperidin-1-yl]-[4-methoxy-1-(2-methoxy-ethyl)-1H-indol-3-yl]-methanone hydrochloride]",56 nM and 59 nM
7,"COCCn1cc(C(=O)N2CCC(c3cc(CN)ccc3F)CC2)c2c(Br)cccc21 [Example 48, [4-(5-Aminomethyl-2-fluoro-phenyl)-piperidin-1-yl]-[4-bromo-1-(2-methoxy-ethyl)-1H-indol-3-yl]-methanone hydrochloride]",125 nM
8,"NCc1ccc(F)c(C2CCN(C(=O)c3cn4c5c(cccc35)OCC4)CC2)c1 [Example 49, [4-(5-Aminomethyl-2-fluoro-phenyl)-piperidin-1-yl]-(2,3-dihydro-pyrrolo[1,2,3-de]-1,4-benzoxazin-6-yl)-methanone hydrochloride]",291 nM
9,"CC(C)(O)CCn1cc(C(=O)N2CCC(c3cc(CN)ccc3F)CC2)c2ccccc21 [Example 50, [4-(5-Aminomethyl-2-fluoro-phenyl)-piperidin-1-yl]-[1-(3-hydroxy-3-methyl-butyl)-1H-indol-3-yl]-methanone hydrochloride]",241 nM
10,"COCCn1cc(C(=O)N2CCC(c3cc(CN)ccc3F)CC2)c2c(F)cccc21 [Example 51, [4-(5-Aminomethyl-2-fluoro-phenyl)-piperidin-1-yl]-[4-fluoro-1-(2-methoxy-ethyl)-1H-indol-3-yl]-methanone hydrochloride]",54 nM
11,"COCCn1cc(C(=O)N2CCC(c3cc(CN)ccc3F)CC2)c2c(C3CC3)cccc21 [Example 52, [4-(5-Aminomethyl-2-fluoro-phenyl)-piperidin-1-yl]-[4-cyclopropyl-1-(2-methoxy-ethyl)-1H-indol-3-yl]-methanone hydrochloride]",49 nM
12,"COCCn1cc(C(=O)N2CCC(c3cc(CN)ccc3F)CC2)c2c(C(F)(F)F)cccc21 [Example 53, [4-(5-Aminomethyl-2-fluoro-phenyl)-piperidin-1-yl]-[1-(2-methoxy-ethyl)-4-trifluoromethyl-1H-indol-3-yl]-methanone hydrochloride]",289 nM
13,"COCCn1cc(C(=O)N2CCC(c3cc(CN)ccc3F)CC2)c2c(OC(F)(F)F)cccc21 [Example 54, [4-(5-Aminomethyl-2-fluoro-phenyl)-piperidin-1-yl]-[1-(2-methoxy-ethyl)-4-trifluoromethoxy-1H-indol-3-yl]-methanone hydrochloride]",96 nM
14,"COCCn1cc(C(=O)N2CCC(c3cc(CN)ccc3F)CC2)c2c(CCC(C)(C)O)cccc21 [Example 55, [4-(5-Aminomethyl-2-fluoro-phenyl)-piperidin-1-yl]-[4-(3-hydroxy-3-methyl-butyl)-1-(2-methoxy-ethyl)-1H-indol-3-yl]-methanone hydrochloride]",72 nM
15,"CCOc1cccc2c1c(C(=O)N1CCC(c3cc(CN)ccc3F)CC1)cn2CCOC [Example 57, [4-(5-Aminomethyl-2-fluoro-phenyl)-piperidin-1-yl]-[4-ethoxy-1-(2-methoxy-ethyl)-1H-indol-3-yl]-methanone hydrochloride]",54 nM
16,"COCCn1cc(C(=O)N2CCC(c3cc(CN)ccc3F)CC2)c2c(OC3CC3)cccc21 [Example 58, [4-(5-Aminomethyl-2-fluoro-phenyl)-piperidin-1-yl]-[4-cyclopropoxy-1-(2-methoxy-ethyl)-1H-indol-3-yl]-methanone hydrochloride]",108 nM
17,"COCCn1cc(C(=O)N2CCC(c3cc(CN)ccc3F)CC2)c2c(-c3ccccc3)cccc21 [Example 60, [4-(5-Aminomethyl-2-fluoro-phenyl)-piperidin-1-yl]-[1-(2-methoxy-ethyl)-4-phenyl-1H-indol-3-yl]-methanone hydrochloride]",22 nM
18,"COCCn1cc(C(=O)N2CCC(c3cc(CN)ccc3F)CC2)c2c(-c3cccc(F)c3)cccc21 [Example 63, [4-(5-Aminomethyl-2-fluoro-phenyl)-piperidin-1-yl]-[4-(3-fluoro-phenyl)-1-(2-methoxyethyl)-1H-indol-3-yl]-methanone hydrochloride]",46 nM
19,"COCCn1cc(C(=O)N2CCC(c3cc(CN)ccc3F)CC2)c2c(-c3cccs3)cccc21 [Example 64, [4-(5-Aminomethyl-2-fluoro-phenyl)-piperidin-1-yl]-[1-(2-methoxy-ethyl)-4-thiophen-2-yl-1H-indol-3-yl]-methanone hydrochloride]",39 nM
